Reference: paper PMC3937722, “Biochemical studies on a versatile esterase that is most catalytically active with polyaromatic esters” (Microbial Biotechnology, 2014)

Columns and labels:
CN1E1 [1] = test system: T1, CN1E1; assay: ester hydrolysis kinetics; assay type: biochemical, uncultured bacterium; settings: 5 mM EPPS pH 8.0, 40°C
T1 construct: catalytic triad Ser155, Asp250, His280
Description: ester hydrolysis kinetics on CN1E1

CN1E1 [2] = test system: T1, CN1E1; assay: ester hydrolysis kinetics, p-nitrophenol release; assay type: biochemical, uncultured bacterium; settings: pH 7.0 (b12; table heading says pH 8.0), 40°C
Description: ester hydrolysis kinetics, p-nitrophenol release on CN1E1

Molecule	Km (CN1E1 [1])	Km (CN1E1 [2])
CC(=O)Oc1ccccc1 [Phenyl acetate]	940 ± 50 µM	–
COC(=O)c1ccc2cc3ccccc3cc2c1 [Anthracene-2-carboxylic acid methyl ester]	1470 ± 50 µM	–
CC(=O)Oc1ccc([N+](=O)[O-])cc1 [pNP-acetate]	–	190 ± 10 µM
COC(=O)c1ccccc1C(=O)OC [Dimethyl phthalate]	1590 ± 100 µM	–
Naphthalene carboxylic acid methyl ester	710 ± 60 µM	–
CC(=O)OCC(COC(C)=O)OC(C)=O [Triacetin]	1640 ± 80 µM	–
CC(=O)OC[C@H]1OC=C[C@@H](OC(C)=O)[C@@H]1OC(C)=O [Tri-O-acetyl-D-glucal]	1080 ± 50 µM	–
CCOC(=O)c1ccc(O)c(O)c1 [Protocatechuic acid ethyl ester]	1140 ± 60 µM	–
O=Cc1ccc(C(=O)OCc2ccccc2)cc1 [Benzoic acid, 4-formyl-, phenylmethyl ester]	640 ± 60 µM	–
COC(=O)c1ccc2ccc3ccccc3c2c1 [Methyl phenanthrene-3-carboxylate]	1600 ± 90 µM	–
COC(=O)/C=C/c1cc(O)ccc1O [2,5-Dihydroxycinnamic acid methyl ester]	1060 ± 60 µM	–
CCCCOC(C)=O [Butyl acetate]	2100 ± 170 µM	–
COC(=O)c1cc2ccccc2c2ccccc12 [Methyl phenanthrene-9-carboxylate]	530 ± 30 µM	–
COC(=O)CBr [Methyl bromoacetate]	1700 ± 90 µM	–
